Test results taken from patent US20150104868A1, “Methods of Maintaining and Improving Biological Cell Function and Activity” (GARGILL INCORPORATED, priority 2012, published 2015).

Tested on: CRL 1730 HUVECs
Assay: Microarray transcriptomics of HUVEC (HGERT/HG, HG/NG)
Assay type: cell-based, human
[1] = Breast cancer, Cysteine/gluathione
[2] = Breast cancer, Heat shock protein
[3] = Breast cancer, ILK signaling (integrin linked kinase)
[4] = Breast cancer, Mitotic cell cycle
[5] = Breast cancer, One carbon metabolism
[6] = Breast cancer, Peptidase activity
[7] = Breast cancer, Plasminogen activators
[8] = Breast cancer, Reactive oxygen species
[9] = Breast cancer, Tyrosine phosphatase activity
[10] = HUVEC, 5 mM ERT + 30 mM glucose vs 30 mM glucose

OC[C@@H](O)[C@@H](O)CO [ERT, meso-1,2,3,4-tetrahydroxybutane]
HGERT/HG TRIT1 (TRNA isopentenyltransferase 1) (Breast cancer, ATP metabolism): 0.98 Ω
HGERT/HG VPS4B (Vacuolar protein sorting 4 homolog B (S. cerevisiae)) (Breast cancer, ATP metabolism): 0.99 Ω
HGERT/HG YME1L1 (YME1-like 1 (S. cerevisiae)) (Breast cancer, ATP metabolism): 1.00 Ω
HGERT/HG CORO1A (Coronin, actin binding protein, 1A) (Breast cancer, Actin binding): 0.94 Ω
HGERT/HG PLEC1 (Plectin) (Breast cancer, Actin binding): Ψ 1.03
HGERT/HG JUP (Junction plakoglobin) (Breast cancer, Alpha-catenin binding): Ψ 1.01
HGERT/HG AHCYL1 (Adenosylhomocysteinase-like 1) [1]: Ψ 1.01
HGERT/HG ATIC (5-aminoimidazole-4-carboxamide ribonucleotide formyltransferase/IMP cyclohydroiase) [1]: 0.99 Ω
HGERT/HG ESD (Esterase D) [1]: 0.99 Ω
HGERT/HG DCK (Deoxycytidine kinase) (Breast cancer, Deoxycytidine metabolism): 0.98 Ω
HGERT/HG COL4A6 (Collagen, type IV, alpha 6) (Breast cancer, Focal adhesion): Ψ 1.03
HGERT/HG DNAJC8 (DnaJ (Hsp40) homolog, subfamily C, member 8) [2]: 0.99 Ω
HGERT/HG DNAJC11 (DnaJ (Hsp40) homolog, subfamily C, member 11) [2]: Ψ 1.01
HGERT/HG ACTN1 (Breast cancer, Hypoxia response): 0.99 Ω
HGERT/HG ACTN1 (Actinin, alpha 1) [3]: Ψ 1.01
HGERT/HG FBLIM1 (Flamin binding LIM protein 1) [3]: Ψ 1.02
HGERT/HG NCK2 (NCK adaptor protein 2) [3]: Ψ 1.01
HGERT/HG PXN (Paxillin) [3]: Ψ 1.01
HGERT/HG RHOB (Ras homolog gene family, member B) [3]: Ψ 1.02
HGERT/HG RHOJ (Ras homolog gene family, member J) [3]: Ψ 1.02
HGERT/HG RSU1 (Ras suppressor protein 1) [3]: 0.99 Ω
HGERT/HG VIM (Vimentin) [3]: 1.00 Ω
HGERT/HG ACTN1 (Actinin, alpha 1) (Breast cancer, Insulin binding): Ψ 1.01
HGERT/HG FBLM1 (Filamin binding LIM protein 1) (Breast cancer, Insulin binding): Ψ 1.02
HGERT/HG NCK2 (NCK adaptor protein 2) (Breast cancer, Insulin binding): Ψ 1.01
HGERT/HG PIK3R1 (Phosphoinositide-3 kinase, regulatory subunit 1 (alpha)) (Breast cancer, Insulin binding): Ψ 1.03
HGERT/HG PXN (Paxillin) (Breast cancer, Insulin binding): Ψ 1.01
HGERT/HG RHOB (Ras homolog gene family, member B) (Breast cancer, Insulin binding): Ψ 1.02
HGERT/HG RHOJ (Ras homolog gene family, member J) (Breast cancer, Insulin binding): Ψ 1.02
HGERT/HG RSU1 (Ras suppressor protein 1) (Breast cancer, Insulin binding): 0.99 Ω
HGERT/HG VIM (Vimentin) (Breast cancer, Insulin binding): 1.00 Ω
HGERT/HG WDRG (WD repeat domain 6) (Breast cancer, Insulin binding): Ψ 1.02
HGERT/HG AZI1 (S-azacytidine induced 1) [4]: Ψ 1.02
HGERT/HG CEP135 (Centrosomal protein 135kDa) [4]: Ψ 1.01
HGERT/HG CEP250 (Centrosomal protein 250kDa) [4]: 0.99 Ω
HGERT/HG FGFR1OP (FGFR1 oncogene partner) [4]: 0.99 Ω
HGERT/HG MPHOSPH6 (M-phase phosphoprotein G) [4]: 0.99 Ω
HGERT/HG UBA3 (Ubiquitin-like modifier activating enzyme 3) [4]: 0.99 Ω
HGERT/HG AHCYL1 (Adenosylhomocysteinase-like 1) [5]: Ψ 1.01
HGERT/HG ATIC (5-aminoimdazole-4-carboxamide ribonucleotide formyltransferase/IMP cyclohydroiase) [5]: 0.99 Ω
HGERT/HG ESD (Esterase D) [5]: 0.99 Ω
HGERT/HG OSTM1 (Osteopetrosis associated transmembrane protein 1) (Breast cancer, Osteoclast differentiation): 0.99 Ω
HGERT/HG CORO1A (Coronin, actin binding protein, 1A) (Breast cancer, PI3 kinase binding): 0.94 Ω
HGERT/HG ATXN3 (Ataxin 3) [6]: 0.99 Ω
HGERT/HG OTUD5 (OTU domain containing 5) [6]: Ψ 1.01
HGERT/HG SENP3 (SUMO1/sentrin/SMT3 sepcific peptidase 3) [6]: Ψ 1.01
HGERT/HG WFDC12 (WAP four-disulfide core domain 12) [6]: 0.96 Ω
HGERT/HG BAD2 (Bromodomain containing 2) [7]: Ψ 1.02
HGERT/HG RHOJ (Ras homolog gene family, member J) [7]: Ψ 1.02
HGERT/HG COX8A (Cytochrome c oxidase subunit VIIIA (ubiquitous)) [8]: 0.99 Ω
HGERT/HG JUP (Junction plankoglobin) [8]: Ψ 1.01
HGERT/HG MPHOSPH6 (M-phase phosphoprotein 6) [8]: 0.99 Ω
HGERT/HG SDHD (Succinate dehydrogenase complex, subunit D, integral membrane protein) [8]: 0.98 Ω
HGERT/HG SMOX (Spermine oxidase) [8]: 0.99 Ω
HGERT/HG SOS1 (Son of sevenless homolog 1 (Drosophila)) [8]: Ψ 1.06
HGERT/HG TCF12 (Transcription factor 12) [8]: 0.99 Ω
HGERT/HG TGM2 (Transglutaminase 2 (C polypeptide, protein-glutamine-gamma-glutamyltransferase)) [8]: Ψ 1.01
HGERT/HG PAQR3 (Progestin and adipoQ receptor family member III) (Breast cancer, Receptor activity): 0.98 Ω
HGERT/HG EID2 (EP300 interacting inhibitor of differentiation 2) (Breast cancer, SMAD binding): 0.99 Ω
HGERT/HG PGRMC2 (Progesterone receptor membrane component 2) (Breast cancer, Steroid hormone receptor activity): 0.98 Ω
HGERT/HG HS3ST1 (Heparan sulfate (glucosamine) 3-O-sulfotransferase 1) (Breast cancer, Sulfotransferase acfivity): Ψ 1.03
HGERT/HG DUSP23 (Dual specificity phosphatase 23) [9]: 0.99 Ω
HGERT/HG PTPLAD1 (Protein tyrosine phosphatase-like A domain containing 1) [9]: Ψ 1.01
transcriptomic changes, HG/NG vs HGERT/HG (HUVEC, HG conditions): reverses many of the transciptomic changes observed in its absence
HGERT/HG transcript ABCB10 [10]: 0.98 Ω
HGERT/HG transcript ACTL6A [10]: 0.98 Ω
HGERT/HG transcript ACTN1 [10]: Ψ 1.01
HGERT/HG transcript ACTR5 [10]: Ψ 1.01
HGERT/HG transcript AGTPBP1 [10]: 0.98
HGERT/HG transcript AHCYL1 [10]: Ψ 1.01
HGERT/HG transcript ANKZF1 [10]: 0.99
HGERT/HG transcript ATAD1 [10]: 0.99 Ω
HGERT/HG transcript ATAD3B [10]: Ψ 1.01
HGERT/HG transcript ATIC [10]: 0.99 Ω
HGERT/HG transcript ATP2C1 [10]: 0.99 Ω
HGERT/HG transcript ATP5E [10]: 0.99 Ω
HGERT/HG transcript ATP5O [10]: 1.00 Ω
HGERT/HG transcript ATP13A1 [10]: Ψ 1.02
HGERT/HG transcript AZI1 [10]: Ψ 1.02
HGERT/HG transcript BACE1 [10]: Ψ 1.02
HGERT/HG transcript BBS10 [10]: 0.98 Ω
HGERT/HG transcript BRD2 [10]: Ψ 1.02
HGERT/HG transcript Bcl2l12 [10]: Ψ 1.02
HGERT/HG transcript C3orf26 [10]: 0.99 Ω
HGERT/HG transcript C6orf66 [10]: 0.99 Ω
HGERT/HG transcript C20orf7 [10]: 0.99 Ω
HGERT/HG transcript CARS [10]: 1.00 Ω
HGERT/HG transcript CENPK [10]: 0.97 Ω
HGERT/HG transcript CEP135 [10]: Ψ 1.01
HGERT/HG transcript CEP250 [10]: 0.99
HGERT/HG transcript CHMP7 [10]: 0.99
HGERT/HG transcript CIB1 [10]: 1.00 Ω
HGERT/HG transcript CKAPS [10]: Ψ 1.01
HGERT/HG transcript CNIH2 [10]: 0.99
HGERT/HG transcript COG6 [10]: 0.99
HGERT/HG transcript COL4A6 [10]: Ψ 1.03
HGERT/HG transcript CORO1A [10]: 0.94 Ω
HGERT/HG transcript COX8A [10]: 0.99 Ω
HGERT/HG transcript CSNK1G1 [10]: Ψ 1.02
